Reference: US9125406B2, “Methods and compositions for control of cabbage looper, trichoplusia ni” (Simon Fraser University, priority 2008, dated 2015)
Where two headings read alike, the source gives them in different places. Marks after values point to notes of the source that are not given here.

Tests used:
[1] = test system: third instar T. ni larvae; assay: Leaf disk choice feeding deterrence bioassay; type: in vivo, Trichoplusia ni
From the text: Cabbage plants (Brassica oleraceae var. Stonehead) used in the bioassays were routinely grown in plastic pots with a mixture of sandy loam soil and peat moss (4:1) in a greenhouse at the University of British Columbia, Vancouver, BC, Canada. Leaves were collected from cabbage plants that were 5-6 weeks old.
T. ni larvae and moths were obtained from a long established colony (>50 generations) maintained on an artificial diet, Velvetbean Caterpillar Diet No. F9796 [Bio-Sery Inc. (Frenchtown, NIL)] in the insectary of the University of British Columbia (UBC).
(§1) Initial screening for feeding deterrent effects was conducted at 50 μg/cm^2 in feeding deterrent bioassays.
Larvae were given the choice of feeding on two leaf disks, one treated with 10 μL of a solution of the test substance painted on each side and the other treated with a carrier solvent alone. The number of larvae was 25 per treatment.
Feeding deterrence data (percent) for initial screening concentration were analyzed by analysis of variance (ANOVA) after arcsin transformation using statistics software (Statistix 7. Analytical Software, Statistix 7 for Windows 95, 98, NT, 2000. Analytical Software, Tallahassee).

[2] = test system: third instar T. ni larvae; assay: whole plant or invertebrate; conditions: for mortality at 0.25 %: Trichoplusia, topical, 24 h
Procedure: as §1
Mortality was determined 24 h after spraying larvae directly with test solutions. Third instar T. ni larvae were sprayed in 90 mm×15 mm Petri dishes (Falcon) lined with Fisher Scientific filter paper (90 mm diameter). Small plastic hand spraying bottles (50 mL capacity) were used. Larvae were then transferred to Petri dishes (90 mm×15 mm) with a small piece of artificial diet. Each Petri dish contained 10 larvae. Three replicates, each consisting of 10 larvae, were used per treatment.

T. ni moths [3] = assay: Oviposition choice (deterrence) bioassay on cabbage leaves; type: in vivo, Trichoplusia ni; conditions: Trichoplusia, 48 h, Table 5; oviposition deterrence at 0.25%, 48 h; read-out: OD (%), mean ± SE (n = 25-33)
Procedure: as §1
T. ni larvae were reared on normal diet from neonates (<24 h old) until pupation. Pupae were sexed and put in separate plastic containers until emergence. After eclosion, pairs of moths (one male and one female) were introduced into each cage with a control and a treated cabbage leaf. Pairs of moths (n=25) were used per treatment. Each leaf (approximately 100-110 cm^2) was sprayed with 0.5 mL of MeOH or a methanolic solution of the test chemical on each side. Eggs were counted on each cabbage leaf after 48 h.

T. ni moths [4] = assay: as above; type: in vivo, Trichoplusia ni; conditions: Trichoplusia, 48 h, Table 8; at 0.25%; read-out: OD (%) Mean ± SE N = 35-40
[5] = Trichoplusia, foliar, Table 5, 1,2-dialkoxybenzenes, feeding deterrence at 50 μg/cm^2, read-out: FD (%), mean ± SE (n = 25)
[6] = Trichoplusia, foliar, Table 4, 1,3-dialkoxybenzenes, feeding deterrence at 50 μg/cm^2, read-out: FD (%), mean (SE (n = 25))
[7] = Table 3, 1,4-dialkoxybenzenes, feeding deterrence at 50 μg/cm^2
[8] = Trichoplusia, foliar, Table 3, 1,4-dialkoxybenzenes, feeding deterrence at 50 μg/cm^2, read-out: FD (%), mean ± SE (n = 25)
[9] = read-out: mortality (%) (n = 3 × 10), Table 5

## COc1ccccc1O [1-hydroxy-2-methoxybenzene]
[1]; [5]
  pest or weed control at 50 µg/cm2, 50 µg/cm2: -7.5%

## CCOc1ccccc1O [2a{2}, 2-Ethoxy phenol]
[1]; [5]
  pest or weed control at 50 µg/cm2, 50 µg/cm2: -5.3%

## CCCOc1ccccc1O [2a{3}, 2-Propoxy phenol]
[1]; [5]
  pest or weed control at 50 µg/cm2, 50 µg/cm2: -12 ± 20%

## CCCCOc1ccccc1O [2a{4}, 2-Butoxy phenol]
[1]; [5]
  pest or weed control at 50 µg/cm2, 50 µg/cm2: 12 ± 20.3%

## C=CCOc1ccccc1O [2a{6}, 2-Allyloxy phenol]
[1]; [5]
  pest or weed control at 50 µg/cm2, 50 µg/cm2: 31.1 ± 15.5%

## COc1cccc(O)c1 [2b{1}, 3-Methoxy phenol]
[1]; [6]
  pest or weed control at 50 µg/cm2, 50 µg/cm2: 44.7 ± 17.5%

## CCOc1cccc(O)c1 [2b{2}, 3-Ethoxy phenol]
[1]; [6]
  pest or weed control at 50 µg/cm2, 50 µg/cm2: -18.7 ± 17.8%

## CCCOc1cccc(O)c1 [2b{3}, 3-Propoxy phenol]
[1]; [6]
  pest or weed control at 50 µg/cm2, 50 µg/cm2: 4 ± 20.4%

## CC(C)CCOc1cccc(O)c1 [2b{4}, 3-(3-Methyl-butyloxy)phenol]
[1]; [6]
  pest or weed control at 50 µg/cm2, 50 µg/cm2: -5.8 ± 18.7%

## COc1ccc(O)cc1 [2c{1}, 4-Methoxy phenol]
[1]; [7]
  FD (%), mean ± SE (n = 25): feeding stimulants
[1]; [8]
  pest or weed control at 50 µg/cm2, 50 µg/cm2: -26.5 ± 18.6%

## CCOc1ccc(O)cc1 [2c{2}, 4-Ethoxy phenol]
[1]; [7]
  FD (%), mean ± SE (n = 25): weak feeding deterrent
[1]; [8]
  pest or weed control at 50 µg/cm2, 50 µg/cm2: 29.8 ± 18.2%

## CCCOc1ccc(O)cc1 [2c{3}, 4-Propoxy phenol]
[1]; [7]
  FD (%), mean ± SE (n = 25): feeding stimulants
[1]; [8]
  pest or weed control at 50 µg/cm2, 50 µg/cm2: -28 ± 18.4%

## CC(C)CCOc1ccc(O)cc1 [2c{5}, 4-(3-Methyl-butyloxy)phenol]
[1]; [8]
  pest or weed control at 50 µg/cm2, 50 µg/cm2: 29.5 ± 16.6%

## COc1ccccc1OC [3a{1,1}, 1,2-Dimethoxy benzene]
[1]; Trichoplusia, foliar, read-out: FD (%), mean ± SE (n = 25)
  pest or weed control at 50 µg/cm2, 50 µg/cm2: 26 ± 17.6%

## CCOc1ccccc1OCC [3a{2,2}, 1,2-Diethoxy benzene]
[1]; [5]
  pest or weed control at 50 µg/cm2, 50 µg/cm2: -2.1%

## CCCOc1ccccc1OCCC [3a{3,3}, 1,2-Dipropoxy benzene]
[1]; [5]
  pest or weed control at 50 µg/cm2, 50 µg/cm2: 26.2 ± 17.6%

## C=CCOc1ccccc1OCCC [3a{3, 6}, 1-allyloxy-2-propoxybenzene]
[1]; Trichoplusia, foliar, Table 8, 50 μg/cm^2, read-out: F.D (%) Mean ± SE N = 25
  pest or weed control at 50 µg/cm2, 50 µg/cm2: 96 ± 3%
[1]; Trichoplusia, foliar, feeding deterrence (FD), Table 12, non-toxic feeding deterrents, read-out: % deterrence
  pest or weed control at 50 µg/cm2: 96%
[1]; feeding deterrence DC50, unit not given in Table 12
  DC50: 12-16 ^a μg/cm^2
[2]; read-out: Mortality (%) N = 3 × 10, Table 8
  mortality at 0.25 %: 17%
[2]; contact toxicity to larvae, negative or zero values replaced by 0.1 for the index (footnote b)
  % mortality: 10-17 ^a %

## CCCCOc1ccccc1OCCCC [3a{4,4}, 1,2-Dibutoxy benzene]
[1]; [5]
  pest or weed control at 50 µg/cm2, 50 µg/cm2: 56.4 ± 13.8%
[2]; [9]
  mortality at 0.25 %: 10%
T. ni moths [3]
  pest or weed control at 0.25 %: 19.6%

## CC(C)CCOc1ccccc1OCCC(C)C [3a{5,5}, 1,2-Di-(3-methyl-butyloxy)benzene]
[1]; [5]
  pest or weed control at 50 µg/cm2, 50 µg/cm2: 69.9 ± 11.5%
[2]; [9]
  mortality at 0.25 %: 40%
T. ni moths [3]
  pest or weed control at 0.25 %: 11.5%

## C=CCOc1ccccc1OCCC(C)C [3a{5, 6}, 1-allyloxy-2-isopentoxybenzene]
T. ni moths [4]
  pest or weed control at 0.25 %: 26 ± 13.5%
